# Assay results from US6592867B2, “Antimicrobial composition containing an oxidoreductase and an enhancer of the N-hydroxyanilide-type” (Novozymes A/S, priority 1998, dated 2003).
# What was measured:
# Assay type in all cases: cell-based
# [1] = tested on: Pseudomonas fluorescens; assay: Bactericidal activity of phenol oxidizing enzyme plus enhancing agent, surviving cells enumerated by Malthus (Examples 1 and 3); conditions: for Bactericidal activity (reduction in living cell number) / Bactericidal activity: 20 min, 40° C.; for Cell reduction: enhancing agent 0.2 mM, hydrogen peroxide 0.5 mM, rCiP 3 POXU/ml, total kill
# Procedure: (§1) Antimicrobial activity was evaluated in 0.05 M MES-buffer (Sigma M8250) (pH 6) or 0.05 HEPES-buffer (Sigma H3375) (pH 8); buffers were sterilised by filter sterilisation. The antimicrobial activity was determined against Pseudomonas fluorescens (Gram et al. 1990, International Journal of Food Microbiology 10: 303-316) and Staphylococcus epidermidis (DSM 20042). Cells were grown in Tryptone Soya Broth (Oxoid CM129) at 30° C. (S. epidermidis) or 25° C. (P. fluorescens) for 24 h and diluted in the MES-buffer to a final cell concentration of approximately 10^6 cfu/ml. The cell suspensions were mixed with rCiP (3 POXU/ml), enhancing agent (0.2 mM) and hydrogen peroxide (0.5 mM) for 20 min at 40° C. The bactericidal activity was determined by incubation in Malthus. Detection times measured by the Malthus instrument were converted to cfu/ml by a calibration curve. Either direct or Indirect Malthus measurements were used when enumerating total survival cells (Malthus Flexi M2060, Malthus Instrument Limited). By the direct measurements, the cell metabolism was determined by conductance measurements in the growth substrate. By the indirect measurements, 3 ml of growth medium was transferred to the outer chamber of the indirect Malthus cells, and 0.5 ml of sterile KOH (0.1 M) was transferred to the inner chamber. The cell suspensions were after enzyme treatment transferred to the outer chamber of the Malthus cell. As cells are growing in the outer chamber they produce CO2 which will dissolve in the KOH in the inner chamber and thereby change the conductance of the KOH. The amount of CO2 formed by the respiring cells surviving the enzyme treatment was used for estimating the number of viable cells. When the conductance change is measurable by the Malthus, a detection time (dt) will be recorded. The dt's were converted to colony counts by use of a calibration curve relating cfu/ml to dt (Johansen et al. 1995. Journal of Applied Bacteriology 78:297-303, Johansen et al. 1997, Applied and Environmental Microbiology 63:3724-3728). Antibacterial activity of Coprinus cinereus peroxidase (rCiP), Polyporus pinsitus laccase (rPpL), Coprinus cinereus laccase (rCcL) and Rhizoctonia solani laccase (rRsL) (as described in WO 95/07988) was determined with different enhancing agents at pH 6 and 8 (buffers; see Example 1). The rCiP was combined with 0.5 mM hydrogen peroxide. Antimicrobial activity of rCiP and rPpL was determined against Pseudomonas fluorescens (Gram et al. 1990, International Journal of Food Microbiology 10:303-316), whereas antimicrobial activity of rCcL and rRsL was determined against Pseudomonas aeruginosa (ATCC 10145). The bactericidal activity was determined as described in example 1. The results are shown as the reduction in living cell number. Thus, a reduction of 4 correspond to a 4 log reduction of living cells e.g. from 10^6 CFU/ml to 10^2 CFU/ml.
# [2] = tested on: Pseudomonas aeruginosa (ATCC 10145); assay: Bactericidal activity of laccase plus enhancing agent, surviving cells enumerated by Malthus (Examples 2 and 3)
# Procedure: as §1, with “The antimicrobial” for “Antimicrobial activity was evaluated in 0.05 M MES-buffer (Sigma M8250) (pH 6) or 0.05 HEPES-buffer (Sigma H3375) (pH 8); buffers were sterilised by filter sterilisation. The antimicrobial”, “activity of Polyporus pinsitus laccase (rPpL), obtained as described in WO 96/00290), and Coprinus cinereus laccase (rCcL), obtained as described in WO 97/08325, was determined with N-hydroxyacetanilide as enhancing agent against Pseudomonas aeruginosa (ATCC 10145), Enterobacter aerogenes (ATCC 13048) and Enterococcus faecalis (DSM 2570). The bactericidal activity was determined as described in Example 1, the antimicrobial activity of rPpL (1 mg/L) was evaluated at pH 6, whereas rCcL (1 mg/L) was evaluated at pH 8. Antibacterial activity of Coprinus cinereus” for “activity of Coprinus cinereus”
# [3] = tested on: Enterobacter aerogenes (ATCC 13048); assay: Bactericidal activity of laccase plus N-hydroxyacetanilide, Malthus (Example 2); conditions: for Bactericidal activity (dose-response): 20 min, 40° C.
# Procedure: (§2) The antimicrobial activity was determined against Pseudomonas fluorescens (Gram et al. 1990, International Journal of Food Microbiology 10: 303-316) and Staphylococcus epidermidis (DSM 20042). Cells were grown in Tryptone Soya Broth (Oxoid CM129) at 30° C. (S. epidermidis) or 25° C. (P. fluorescens) for 24 h and diluted in the MES-buffer to a final cell concentration of approximately 10^6 cfu/ml. The cell suspensions were mixed with rCiP (3 POXU/ml), enhancing agent (0.2 mM) and hydrogen peroxide (0.5 mM) for 20 min at 40° C. The bactericidal activity was determined by incubation in Malthus. Detection times measured by the Malthus instrument were converted to cfu/ml by a calibration curve. Either direct or Indirect Malthus measurements were used when enumerating total survival cells (Malthus Flexi M2060, Malthus Instrument Limited). By the direct measurements, the cell metabolism was determined by conductance measurements in the growth substrate. By the indirect measurements, 3 ml of growth medium was transferred to the outer chamber of the indirect Malthus cells, and 0.5 ml of sterile KOH (0.1 M) was transferred to the inner chamber. The cell suspensions were after enzyme treatment transferred to the outer chamber of the Malthus cell. As cells are growing in the outer chamber they produce CO2 which will dissolve in the KOH in the inner chamber and thereby change the conductance of the KOH. The amount of CO2 formed by the respiring cells surviving the enzyme treatment was used for estimating the number of viable cells. When the conductance change is measurable by the Malthus, a detection time (dt) will be recorded. The dt's were converted to colony counts by use of a calibration curve relating cfu/ml to dt (Johansen et al. 1995. Journal of Applied Bacteriology 78:297-303, Johansen et al. 1997, Applied and Environmental Microbiology 63:3724-3728). Antibacterial activity of Polyporus pinsitus laccase (rPpL), obtained as described in WO 96/00290), and Coprinus cinereus laccase (rCcL), obtained as described in WO 97/08325, was determined with N-hydroxyacetanilide as enhancing agent against Pseudomonas aeruginosa (ATCC 10145), Enterobacter aerogenes (ATCC 13048) and Enterococcus faecalis (DSM 2570). The bactericidal activity was determined as described in Example 1, the antimicrobial activity of rPpL (1 mg/L) was evaluated at pH 6, whereas rCcL (1 mg/L) was evaluated at pH 8.
# [4] = tested on: Enterococcus faecalis (DSM 2570); assay: as above; conditions: 20 min, 40° C.
# Procedure: as §2
# [5] = rCiP = 3 POXU/ml + 0.5 mM hydrogen peroxide, pH 6
# [6] = rCcL = 5 mg/L, pH 6, 20 min, 40° C.
# [7] = rCcL = 5 mg/L, pH 8, 20 min, 40° C.
# [8] = rRsL = 5 mg/L, pH 6, 20 min, 40° C.
# [9] = rRsL = 5 mg/L, pH 8, 20 min, 40° C.
# [10] = rCiP = 3 POXU/ml + 0.5 mM hydrogen peroxide, pH 8
# [11] = rPpL 1 mg/L, pH 6, high concentration of N-hydroxyacetanilide
smiles,measurement,setting,value
COc1ccc(C(=O)N(O)c2ccccc2)cc1 [N1-hydroxy-N1-phenyl-4-methoxybenzamide],Bactericidal activity (reduction in living cell number),[1]; [5],4.1 log CFU/ml
same,Bactericidal activity (reduction in living cell number),"[1]; rPpL = 5 mg/L, pH 8",4.8 log CFU/ml
same,Bactericidal activity (reduction in living cell number),[2]; [6],5.9 log CFU/ml
same,Bactericidal activity (reduction in living cell number),[2]; [7],6.3 log CFU/ml
same,Bactericidal activity (reduction in living cell number),[2]; [8],3.8 log CFU/ml
same,Bactericidal activity (reduction in living cell number),[2]; [9],4.6 log CFU/ml
CC(=O)N(O)c1cccc([N+](=O)[O-])c1 [N1-hydroxy-N1-(3-nitrophenyl)acetamide],Bactericidal activity (reduction in living cell number),[1]; [5],1.5 log CFU/ml
same,Bactericidal activity (reduction in living cell number),[1]; [10],1.1 log CFU/ml
same,Bactericidal activity (reduction in living cell number),"[1]; rPpL = 5 mg/L, pH 6",1.6 log CFU/ml
O=C(c1ccc([N+](=O)[O-])cc1)N(O)c1ccccc1 [N1-hydroxy-N1-phenyl-4-nitrobenzamide],Bactericidal activity (reduction in living cell number),[1]; [10],1.4 log CFU/ml
CC(=O)N(O)c1ccc([N+](=O)[O-])cc1 [N1-hydroxy-N1-(4-nitrophenyl)acetamide],Bactericidal activity (reduction in living cell number),[1]; [5],4.2 log CFU/ml
same,Bactericidal activity (reduction in living cell number),[1]; [10],1.2 log CFU/ml
same,Bactericidal activity (reduction in living cell number),"[1]; rPpL = 5 mg/L, pH 6",6.7 log CFU/ml
same,Bactericidal activity (reduction in living cell number),"[1]; rPpL = 5 mg/L, pH 8",1.7 log CFU/ml
CC(=O)c1ccc(N(O)C(C)=O)cc1 [N1-(4-acetylphenyl)-N1-hydroxyacetamide],Bactericidal activity (reduction in living cell number),[1]; [5],1.2 log CFU/ml
CC(=O)N(O)c1ccccc1 [N-hydroxyacetanilide],Bactericidal activity,"[1]; combined system: enhancing agent 0.2 mM, hydrogen peroxide 0.5 mM and rCiP 3 POXU/ml",total kill
same,Cell reduction,[1]; pH 6,approximately 10^6 CFU/ml
same,Cell reduction,[1]; pH 8,approximately 10^6 CFU/ml
same,Bactericidal activity,"[1]; enhancing agent (0.2 mM) combined with hydrogen peroxide (0.5 mM), no enzyme",No bactericidal activity
same,Bactericidal activity,"[1]; enhancing agent alone (0.2 mM), no enzyme, no hydrogen peroxide",No bactericidal activity
same,Enhancing agent concentration at which bactericidal activity was obtained,"[2]; combined with laccase (rPpL or rCcL, 1 mg/L), 20 min, 40° C.",above 200 μM
same,Bactericidal activity (dose-response),"[2]; rCcL 1 mg/L, pH 8, 20 min, 40° C.",significant bactericidal activity
same,Bactericidal activity (dose-response),"[2]; rPpL 1 mg/L, pH 6, 20 min, 40° C.",significant bactericidal activity
same,Bactericidal activity at high concentration of enhancing agent,[2]; [11],total kill
same,Bactericidal activity (dose-response),"[3]; rCcL 1 mg/L, pH 8",significant bactericidal activity
same,Bactericidal activity (dose-response),"[3]; rPpL 1 mg/L, pH 6",significant bactericidal activity
same,Bactericidal activity at high concentration of enhancing agent,[3]; [11],total kill
same,Bactericidal activity (dose-response),"[4]; rCcL 1 mg/L, pH 8",significant bactericidal activity
same,Bactericidal activity (dose-response),"[4]; rPpL 1 mg/L, pH 6",significant bactericidal activity
N#Cc1ccc(C(=O)N(O)c2ccccc2)cc1 [N1-hydroxy-N1-phenyl-4-cyanobenzamide],Bactericidal activity (reduction in living cell number),[1]; [5],6.1 log CFU/ml
same,Bactericidal activity (reduction in living cell number),[1]; [10],2.1 log CFU/ml
same,Bactericidal activity (reduction in living cell number),"[1]; rPpL = 5 mg/L, pH 6",2.5 log CFU/ml
same,Bactericidal activity (reduction in living cell number),[2]; [6],3.5 log CFU/ml
same,Bactericidal activity (reduction in living cell number),[2]; [7],6.5 log CFU/ml
same,Bactericidal activity (reduction in living cell number),[2]; [8],3.5 log CFU/ml
same,Bactericidal activity (reduction in living cell number),[2]; [9],6.5 log CFU/ml
CC(=O)N(O)c1ccc(O)cc1 [N1-(4-hydroxyphenyl)-N1-hydroxyacetamide],Bactericidal activity (reduction in living cell number),[1]; [5],3.7 log CFU/ml
same,Bactericidal activity (reduction in living cell number),[1]; [10],1.1 log CFU/ml
CC(=O)N(O)c1ccc(C#N)cc1 [N1-(4-cyanophenyl)-N1-hydroxyacetamide],Bactericidal activity (reduction in living cell number),"[1]; rPpL = 5 mg/L, pH 6",1.7 log CFU/ml
